Measurements published in patent US8436043B2 (Takeda Pharmaceutical Company Limited, priority 2008, dated 2013).

Target: T1, human glucagon receptor (Homo sapiens, UniProt P47871)
T1 construct: made in house; host or cells: FreeStyle CHO cells, transient transfection with pMSRαneo/hGCGR; membrane fraction (35,000 rpm pellet)
Test: Glucagon binding inhibitory activity ([125I]-glucagon binding to glucagon receptor membrane protein)
Settings: human glucagon receptor membrane protein, [125I]-glucagon, 90 min room temperature
Outline: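 Receptor source was a membrane fraction of transiently transfected CHO cells bearing human receptor; 90 min room-temperature binding, filtration harvest, scintillation counting.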

T1 sequence (P47871 26-477): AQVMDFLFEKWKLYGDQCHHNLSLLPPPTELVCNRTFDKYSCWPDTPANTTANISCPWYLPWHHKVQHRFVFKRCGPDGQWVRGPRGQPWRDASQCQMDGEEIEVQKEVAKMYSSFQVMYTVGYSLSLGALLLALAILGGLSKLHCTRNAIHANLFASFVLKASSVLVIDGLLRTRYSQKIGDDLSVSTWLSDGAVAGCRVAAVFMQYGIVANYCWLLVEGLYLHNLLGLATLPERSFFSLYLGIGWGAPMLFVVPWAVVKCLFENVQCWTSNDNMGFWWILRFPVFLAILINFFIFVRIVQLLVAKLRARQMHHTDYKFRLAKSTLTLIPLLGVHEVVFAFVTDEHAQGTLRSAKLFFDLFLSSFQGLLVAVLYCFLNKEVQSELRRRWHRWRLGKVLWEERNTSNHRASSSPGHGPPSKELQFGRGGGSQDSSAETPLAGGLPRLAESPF

IC50	SMILES
1800 nM	CN(CCC(=O)O)C(=O)c1ccc(NC(c2nn(C)c3ccccc23)C2CCCCC2)cc1 (stereo not drawn) [Example A7, 3-{[(4-{[cyclohexyl(1-methyl-1H-indazol-3-yl)methyl]amino}phenyl)carbonyl](methyl)amino}propanoic acid]
1700 nM	Cn1c(C(Nc2ccc(C(=O)NCCC(=O)O)cc2)C2CCCCC2)nc2ccccc21 (stereo not drawn) [Example A3, 3-{[(4-{[cyclohexyl(1-methyl-1H-benzimidazol-2-yl)methyl]amino}phenyl)carbonyl]amino}propanoic acid]

Same assay, conditions: test compound 10 μM; 0.4% DMSO = 0%, non-labeled glucagon 1 μM = 100%

inhibitory rate (%) at 10 μM	SMILES
52%	Cc1c(C(Nc2ccc(C(=O)N(C)CCC(=O)O)cn2)C2CCCCC2)oc2ccc(F)cc12 (stereo not drawn) [Example A54, 3-{[(6-{[cyclohexyl(5-fluoro-3-methyl-1-benzofuran-2-yl)methyl]amino}pyridin-3-yl)carbonyl](methyl)amino}propanoic acid]

Same assay, conditions: test compound 10 μM; 0.4% DMSO = 0%, non-labeled glucagon 1 μM = 100%; read-out: inhibitory rate (%) at 10 μM

inhibition at 10 µM	SMILES
60%	CN(CCC(=O)O)C(=O)c1ccc(NC(c2nn(C)c3ccccc23)C2CCCCC2)cc1 (stereo not drawn) [Example A7, 3-{[(4-{[cyclohexyl(1-methyl-1H-indazol-3-yl)methyl]amino}phenyl)carbonyl](methyl)amino}propanoic acid]
69%	Cc1c(C(Nc2ccc(C(=O)NCCC(=O)O)cc2)C2CCCCC2)oc2ccc(Br)nc12 (stereo not drawn) [Example A125, 3-{[(4-{[(5-bromo-3-methylfuro[3,2-b]pyridin-2-yl)(cyclohexyl)methyl]amino}phenyl)carbonyl]amino}propanoic acid]
74%	CN(CCC(=O)O)C(=O)c1ccc(NC(c2cn(-c3ccc(C(F)(F)F)cn3)nc2CCc2ccccc2)C2CCCCC2)cc1 (stereo not drawn) [Example 12, 3-[({4-[(cyclohexyl{3-(2-phenylethyl)-1-[5-(trifluoromethyl)pyridin-2-yl]-1H-pyrazol-4-yl}methyl)amino]phenyl}carbonyl)(methyl)amino]propanoic acid]
68%	CCc1nn(-c2ccc(OC)cc2)cc1C(Nc1ccc(C(=O)NCCC(=O)O)cc1)C1CCCCC1 (stereo not drawn) [Example 50, 3-({[4-({cyclohexyl[3-ethyl-1-(4-methoxyphenyl)-1H-pyrazol-4-yl]methyl}amino)phenyl]carbonyl}amino)propanoic acid]
77%	CCc1oc2ccccc2c1C(Nc1ccc(C(=O)NCCC(=O)O)cc1)C1CCCCC1 (stereo not drawn) [Example A29, 3-{[(4-{[cyclohexyl(2-ethyl-1-benzofuran-3-yl)methyl]amino}phenyl)carbonyl]amino}propanoic acid]
78%	CCOc1cccc(-n2cc(C(Nc3ccc(C(=O)N(C)CCC(=O)O)cc3)C3CCCCC3)c(CC)n2)c1 (stereo not drawn) [Example 83, 3-[{[4-({cyclohexyl[1-(3-ethoxyphenyl)-3-ethyl-1H-pyrazol-4-yl]methyl}amino)phenyl]carbonyl}(methyl)amino]propanoic acid]
86%	CCCCCCC(Nc1ccc(C(=O)N(C)CCC(=O)O)cc1)c1cc2cc(Cl)ccc2n1C (stereo not drawn) [Example A141, 3-{[(4-{[1-(5-chloro-1-methyl-1H-indol-2-yl)heptyl]amino}phenyl)carbonyl](methyl)amino}propanoic acid]
59%	Cc1nn(-c2ncc(C(F)(F)F)cc2Cl)cc1C(Nc1ccc(C(=O)N(C)CCC(=O)O)cc1)C1CCCCC1 (stereo not drawn) [Example 32, 3-{[(4-{[{1-[3-chloro-5-(trifluoromethyl)pyridin-2-yl]-3-methyl-1H-pyrazol-4-yl}(cyclohexyl)methyl]amino}phenyl)carbonyl](methyl)amino}-propanoic acid]
90%	COc1ncccc1-c1ccc2oc(C(Nc3ccc(C(=O)N(C)CCC(=O)O)cc3)C3CCCCC3)c(C)c2c1 (stereo not drawn) [Example A177, 3-[{[4-({cyclohexyl[5-(2-methoxypyridin-3-yl)-3-methyl-1-benzofuran-2-yl]methyl}amino)phenyl]carbonyl}(methyl)amino]propanoic acid]
75%	Cc1c(C(Nc2ccc(C(=O)N(C)CCC(=O)O)cc2)C2CCCCC2)sc2ncccc12 (stereo not drawn) [Example A143, 3-{[(4-{[cyclohexyl(3-methylthieno[2,3-b]pyridin-2-yl)methyl]amino}phenyl)carbonyl](methyl)amino}propanoic acid]
82%	COc1cc(OC)cc(-n2cc(C(Nc3ccc(C(=O)N(C)CCC(=O)O)cc3)C3CCCCC3)c(C)n2)c1 (stereo not drawn) [Example 81, 3-[{[4-({cyclohexyl[1-(3,5-dimethoxyphenyl)-3-methyl-1H-pyrazol-4-yl]methyl}amino)phenyl]carbonyl}(methyl)amino]propanoic acid]
62%	COc1ccc(-n2cc(C(CC(C)C)Nc3ccc(C(=O)NCCC(=O)O)cc3)c(C(C)C)n2)cc1 (stereo not drawn) [Example 54, 3-({[4-({1-[1-(4-methoxyphenyl)-3-(1-methylethyl)-1H-pyrazol-4-yl]-3-methylbutyl}amino)phenyl]carbonyl}amino)propanoic acid]
76%	COc1ccc2oc(C(Nc3ccc(C(=O)NCCC(=O)O)cc3)C3CCCCC3)c(C)c2c1 (stereo not drawn) [Example A30, 3-{[(4-{[cyclohexyl(5-methoxy-3-methyl-1-benzofuran-2-yl)methyl]amino}phenyl)carbonyl]amino}propanoic acid]
69%	CCc1nn(-c2cccc(OC)c2)cc1C(Nc1ccc(C(=O)N(C)CCC(=O)O)cc1)C1CCCCC1 (stereo not drawn) [Example 78, 3-[{[4-({cyclohexyl[3-ethyl-1-(3-methoxyphenyl)-1H-pyrazol-4-yl]methyl}amino)phenyl]carbonyl}(methyl)amino]propanoic acid]
79%	Cc1c(C(Nc2ccc(C(=O)NCCC(=O)O)cc2)C2CCCCC2)oc2ccc(OCc3ccccc3)cc12 (stereo not drawn) [Example A158, 3-({[4-({[5-(benzyloxy)-3-methyl-1-benzofuran-2-yl](cyclohexyl)methyl}amino)phenyl]carbonyl}amino)propanoic acid]
76%	CN(CCC(=O)O)C(=O)c1ccc(NC(c2cn(-c3ccc(C(F)(F)F)cn3)nc2C2CC2)C2CCCCC2)cc1 (stereo not drawn) [Example 10, 3-[({4-[(cyclohexyl{3-cyclopropyl-1-[5-(trifluoromethyl)pyridin-2-yl]-1H-pyrazol-4-yl}methyl)amino]phenyl}carbonyl)(methyl)amino]propanoic acid]
87%	Cc1c(C(Nc2ccc(C(=O)NCCC(=O)O)cc2)C2CCCCC2)oc2c(F)cc(F)cc12 (stereo not drawn) [Example A163, 3-{[(4-{[cyclohexyl(5,7-difluoro-3-methyl-1-benzofuran-2-yl)methyl]amino}phenyl)carbonyl]amino}propanoic acid]
71%	Cc1c(C(Nc2ccc(C(=O)NCCC(=O)O)cc2)C2CCCCC2)oc2ccc(Cl)nc12 (stereo not drawn) [Example A127, 3-{[(4-{[(5-chloro-3-methylfuro[3,2-b]pyridin-2-yl)(cyclohexyl)methyl]amino}phenyl)carbonyl]amino}propanoic acid]
55%	Cn1c(C(Nc2ccc(C(=O)NCCC(=O)O)cc2)C2CCCCC2)nc2ccccc21 (stereo not drawn) [Example A3, 3-{[(4-{[cyclohexyl(1-methyl-1H-benzimidazol-2-yl)methyl]amino}phenyl)carbonyl]amino}propanoic acid]
73%	O=C(O)CCNC(=O)c1ccc(NC(c2cn(-c3ccc(C(F)(F)F)cn3)nc2CCc2ccccc2)C2CCCCC2)cc1 (stereo not drawn) [Example 11, 3-[({4-[(cyclohexyl{3-(2-phenylethyl)-1-[5-(trifluoromethyl)pyridin-2-yl]-1H-pyrazol-4-yl}methyl)amino]phenyl}carbonyl)amino]propanoic acid]
75%	CCc1c(C(CC(C)C)Nc2ccc(C(=O)NCCC(=O)O)cc2)oc2ccccc12 (stereo not drawn) [Example A34, 3-{[(4-{[1-(3-ethyl-1-benzofuran-2-yl)-3-methylbutyl]amino}phenyl)carbonyl]amino}propanoic acid]
